According to patent US12521393B2, “Cytotoxicity targeting chimeras for CCR2-expressing cells” (GLAXOSMITHKLINE INTELLECTUAL PROPERTY DEVELOPMENT LIMITED, priority 2021, dated 2026):

Tests used:
[1] = system: CCR2 expressing cells (CD11b+Ly6c+Hi) in peripheral blood; assay: In vivo depletion assay, flow cytometry of peripheral blood (Example 201); set-up: species or system human CCR2 knock-in mice (C57 background); settings: hCCR2 knock-in mice, IV 0.1 mpk compound + 10 mpk anti-cotinine antibody (SEQ ID NO: 13/14), peripheral blood at 48 hr
Experimental: Stock solution preparation. Stock solutions of compounds of Formula (I) were prepared at 20 mg/mL and 100 mg/mL in […] for PK/PD and dose tolerability studies respectively. Stock solutions were stored at […] until further usage. on the day of experiment, the stock Solution of the compound of Formula (I) was removed from storage at […] and thawed at room temperature. Anti-cotinine antibody having a heavy chain sequence of SEC ID NO: 13 and a light chain sequence of SEQ ID NO: 14 (rabbit variable region sequence with mouse IgG2a Fc domain), if required was removed from storage at −80° C. and thawed at room temperature. Antibody vials were immediately transferred into wet ice after thawing. Compounds of Formula (I) were further diluted in DMSO as per experimental requirements.
The formulation composition was Saline: DMSI: PBS.
Saline was added based on the quantity required and then stock solution of the compound of Formula (I) prepared in DMSO, followed by addition of antibody in PBS. Formulations were incubated at room temperature for 30 minutes before administration to the mouse. DMSO was used at 1 to % (v/v) in the final formulation.
After bleeding, each mouse was sacrificed by cervical dislocation. […] Flow Cytometry Analysis:
CCR2 depletion in peripheral blood was determined by flow cytometry. Briefly, peripheral blood was collected from all animals at the end of study termination and processed. Blood samples were lysed using 1×RBC Lysis buffer and the resulting cell pellet was washed twice in FACS buffer (HBSS containing 5% FBS). Cells were subjected to Fc blocking using mouse Fc block from Biolegend (Trustain, anti-mouse CD16/32, Cat: 101319) to block non-specific binding followed by surface staining for immune markers (CD45, CD3, CD11 b, Ly6C, human CCR2). Surface staining was done for 30 minutes in ice and cells were washed twice to remove unbound antibodies. Cells were stained with 7AAD to determine viability and acquired on BD FACSVerse flow cytometer. Appropriate FMO controls and single-color controls were included in the experiment for gating and compensation respectively.
Percent depletion of CD11 b+Ly6c+Hi cells and CCR2 expression for the different treatment groups was determined.

[2] = target: human alpha1 nicotinic acetylcholine (nACh) receptor (Homo sapiens, UniProt P02708); assay: Nicotinic acetylcholine receptor antagonism assay, IONFlux automated patch clamp (Example 203); assay type: cell-based
Experimental: Cells expressing human alpha1 nicotinic acetylcholine (nACh) receptor (nAChR) were washed and dissociated using Trypsin containing buffer. Cells were then washed and seeded at a density of 3-5 million cells/mL and allowed to grow for 3 days. Then, 60-80 μL of cells were added to plates and incubated with dose response of an ARM compound of Formula (I) with a top concentration of either 10 μM or 100 μM. The receptor was then stimulated via addition of acetylcholine (ACh) and activation of the receptor was monitored via the IONFlux automated patch clamp system. IonFlux Data Analyzer software was utilized to perform leak subtraction and measure (min) peak current amplitude.
Data processing: (1) Current values recorded for vehicle only applications in individual traps/patterns were subtracted from corresponding current amplitude values for control, test article and control+test article. (2) Control response was calculated as % of the average response of the 3rd out of total 3 ACh (10 mM) applications alone. In rare situations, if the 3rd ACh response was obscured due to technical artifacts, the 2nd and/or 1st ACh (10 mM) application was considered as control. The peak current amplitude generated in the presence of each test article concentration was then used to calculate the % inhibition as compared to control response (10 mM ACh alone). These estimates were further corrected for vehicle response and run down corrected by normalizing with time matched control responses (10 mM ACh alone). The corrected percentages were then fit with a non-linear function in GraphPad Prism 6 (or later versions) to determine the IC50.
Exclusion criteria: (i) any n's with poor recording quality, (ii) control current amplitude <500 pA or (iii) significant outliers, as determined by the Grubbs test.
ARMs compounds of Formula (I) of the invention were tested for antagonism of the nAChR in the above assay in […] experimental runs and the results are shown in Table 7 below. Antagonistic activity of the compounds of Formula (I) of the invention is reported as an IC50 value (half maximal inhibitory concentration) and the maximum percentage antagonism observed at the highest concentration of compound of Formula (I) tested, as indicated in Table 7. For compounds tested in more than one experimental run, the IC50 value is reported as an average

[3] = system: endogenous target monocytes in human PBMC; assay: PBMC ex vivo monocyte depletion flow cytometry assay (Example 200); assay type: cell-based; settings: with anti-cotinine antibody (SEQ ID NO: 11/12), 18-24 hours, EC50 in molar, read-out: Ex Vivo Depletion Assay pEC50 (converted)
In short: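 Monocyte depletion is reported as pEC50, averaged or given individually across runs, and read by flow cytometry staining CD45, CD14 and CD4 with a viability dye. Compounds, diluted four-fold over 11 points from 1 mM DMSO stocks, were combined with 30 μg/mL Fc-enhanced anti-cotinine antibody and human PBMC, then incubated 18-24 h at 37° C.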

Sequence of human alpha1 nicotinic acetylcholine (nACh) receptor (P02708 21-457): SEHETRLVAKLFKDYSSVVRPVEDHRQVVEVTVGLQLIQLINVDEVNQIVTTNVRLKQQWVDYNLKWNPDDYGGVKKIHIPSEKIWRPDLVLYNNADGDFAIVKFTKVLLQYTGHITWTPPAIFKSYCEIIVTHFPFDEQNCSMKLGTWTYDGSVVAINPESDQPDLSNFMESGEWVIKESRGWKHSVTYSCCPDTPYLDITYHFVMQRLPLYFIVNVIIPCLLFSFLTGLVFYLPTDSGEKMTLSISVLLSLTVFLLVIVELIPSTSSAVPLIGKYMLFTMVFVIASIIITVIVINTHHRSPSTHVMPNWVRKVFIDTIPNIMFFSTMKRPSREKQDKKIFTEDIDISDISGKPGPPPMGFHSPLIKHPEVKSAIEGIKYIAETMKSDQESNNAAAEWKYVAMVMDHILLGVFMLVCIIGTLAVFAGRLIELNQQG
Sequence of human alpha1 nicotinic acetylcholine (nACh) receptor (P11230 24-501 partner): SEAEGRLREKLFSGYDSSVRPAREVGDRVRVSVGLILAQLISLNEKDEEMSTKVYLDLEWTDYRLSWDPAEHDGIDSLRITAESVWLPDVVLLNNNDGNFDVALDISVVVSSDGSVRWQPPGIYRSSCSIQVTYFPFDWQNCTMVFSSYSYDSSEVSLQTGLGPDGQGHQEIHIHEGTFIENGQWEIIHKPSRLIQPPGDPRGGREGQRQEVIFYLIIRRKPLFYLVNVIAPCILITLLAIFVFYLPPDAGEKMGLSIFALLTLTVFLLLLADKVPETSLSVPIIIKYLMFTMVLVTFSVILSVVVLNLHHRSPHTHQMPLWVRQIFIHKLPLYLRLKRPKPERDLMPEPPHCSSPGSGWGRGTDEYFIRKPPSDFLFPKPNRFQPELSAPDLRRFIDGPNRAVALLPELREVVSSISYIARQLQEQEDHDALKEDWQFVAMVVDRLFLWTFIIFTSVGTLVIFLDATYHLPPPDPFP
Sequence of human alpha1 nicotinic acetylcholine (nACh) receptor (Q07001 22-517 partner): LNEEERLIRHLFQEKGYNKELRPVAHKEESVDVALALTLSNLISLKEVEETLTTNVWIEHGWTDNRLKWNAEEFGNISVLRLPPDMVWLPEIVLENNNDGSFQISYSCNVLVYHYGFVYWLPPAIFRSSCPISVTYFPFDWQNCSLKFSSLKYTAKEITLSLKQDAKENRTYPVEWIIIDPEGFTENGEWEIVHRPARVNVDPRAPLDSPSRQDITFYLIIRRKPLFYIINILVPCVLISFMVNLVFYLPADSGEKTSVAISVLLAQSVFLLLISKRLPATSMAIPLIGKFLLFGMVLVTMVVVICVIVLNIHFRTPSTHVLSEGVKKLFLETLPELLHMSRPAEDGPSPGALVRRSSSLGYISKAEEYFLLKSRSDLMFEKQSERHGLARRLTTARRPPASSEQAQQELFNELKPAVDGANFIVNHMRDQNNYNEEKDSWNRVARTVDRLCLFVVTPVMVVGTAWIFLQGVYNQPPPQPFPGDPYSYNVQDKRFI

Row | Structure (SMILES) | % Depletion of CCR2 expressing cells [1] | IC50 ([2]; antagonism of ACh-stimulated human alpha1 nAChR current, patch clamp) | Emax at 100 µM ([2]; maximum percentage antagonism at maximum concentration tested 100 μM, read-out: Maximum Response) | EC50 [3]
1 | CC(C)N(C)[C@@H]1CC[C@H](N2CC[C@H](Nc3ncnc4ccc(C(F)(F)F)cc34)C2=O)[C@H](NC(=O)[C@H]2C[C@H](NC(=O)CCCO[C@H]3CC[C@H](OCCNC(=O)[C@H]4CC(=O)N(C)[C@@H]4c4cccnc4)CC3)C2)C1 [Example 8, (2S,3S)-N-(2-(((1R,4S)-4-(4-(((1R,3R)-3-(((1R,2S,5R)-5-(Isopropyl(methyl)amino)-2-((S)-2-oxo-3-((6-(trifluoromethyl)quinazolin-4-yl)amino)pyrrolidin-1-yl)cyclohexyl)carbamoyl)cyclobutyl)amino)-4-oxobutoxy)cyclohexyl)oxy)ethyl)-1-methyl-5-oxo-2-(pyridin-3-yl)pyrrolidine-3-carboxamide] | 90.3% | 47200 nM | 73.1% | –
2 | CC(C)N(C)[C@@H]1CC[C@H](N2CC[C@H](Nc3ncnc4ccc(C(F)(F)F)cc34)C2=O)[C@H](NC(=O)[C@H]2CC[C@H](N3CCN(CCCCCCCCNC(=O)[C@H]4CC(=O)N(C)[C@@H]4c4cccnc4)CC3)CC2)C1 [Example 146, (2S,3S)-N-(8-(4-((1R,4r)-4-(((1R,2S,5R)-5-(Isopropyl(methyl)amino)-2-((S)-2-oxo-3-((6-(trifluoromethyl)quinazolin-4-yl)amino)pyrrolidin-1-yl)cyclohexyl)carbamoyl)cyclohexyl)piperazin-1-yl)octyl)-1-methyl-5-oxo-2-(pyridin-3-yl)pyrrolidine-3-carboxamide] | 83.08% | – | – | 0.316 nM
3 | CC(C)N(C)[C@@H]1CC[C@H](N2CC[C@H](Nc3ncnc4ccc(C(F)(F)F)cc34)C2=O)[C@H](NC(=O)C2CCN(CCOCCOCCOCCOCCNC(=O)[C@H]3CC(=O)N(C)[C@@H]3c3cccnc3)CC2)C1 [Example 147] | 77% | – | – | 0.631 nM
4 | CC(C)N(C)[C@@H]1CC[C@H](N2CC[C@H](Nc3ncnc4ccc(C(F)(F)F)cc34)C2=O)[C@H](NC(=O)[C@H]2CC[C@@H](C(=O)NCCCN3CCN(CCCNC(=O)[C@H]4CC(=O)N(C)[C@@H]4c4cccnc4)CC3)CC2)C1 [Example 150, (1 s,4S)-N^1-((1R,2S,5R)-5-(Isopropyl(methyl)amino)-2-((S)-2-oxo-3-((6-(trifluoromethyl)quinazolin-4-yl)amino)pyrrolidin-1-yl)cyclohexyl)-N^4-(3-(4-(3-((2S,3S)-1-methyl-5-oxo-2-(pyridin-3-yl)pyrrolidine-3-carboxamido)propyl)piperazin-1-yl)propyl)cyclohexane-1,4-dicarboxamide] | 85.52% | – | – | 1 nM
5 | CC(C)N(C)[C@@H]1CC[C@H](N2CC[C@H](Nc3ncnc4ccc(C(F)(F)F)cc34)C2=O)[C@H](NC(=O)[C@H]2CC[C@H](N3CCN(C(=O)CCCCCCCCNC(=O)[C@H]4CC(=O)N(C)[C@@H]4c4cccnc4)CC3)CC2)C1 [Example 155, (2S,3S)-N-(9-(4-((1R,4r)-4-(((1R,2S,5R)-5-(Isopropyl(methyl)amino)-2-((S)-2-oxo-3-((6-(trifluoromethyl)quinazolin-4-yl)amino)pyrrolidin-1-yl)cyclohexyl)carbamoyl)cyclohexyl)piperazin-1-yl)-9-oxononyl)-1-methyl-5-oxo-2-(pyridin-3-yl)pyrrolidine-3-carboxamide] | 70% | – | – | 0.251 nM
6 | CC(C)N(C)[C@@H]1CC[C@H](N2CC[C@H](Nc3ncnc4ccc(C(F)(F)F)cc34)C2=O)[C@H](NC(=O)CCCCOCCCCCCCCOCCCCNC(=O)[C@H]2CC(=O)N(C)[C@@H]2c2cccnc2)C1 [Example 161, (2S,3S)-N-(4-((8-((5-(((1R,2S,5R)-5-(Isopropyl(methyl)amino)-2-((S)-2-oxo-3-((6-(trifluoromethyl)quinazolin-4-yl)amino)pyrrolidin-1-yl)cyclohexyl)amino)-5-oxopentyl)oxy)octyl)oxy)butyl)-1-methyl-5-oxo-2-(pyridin-3-yl)pyrrolidine-3-carboxamide] | 76.67% | – | – | 0.794 nM
7 | CC(C)N(C)[C@@H]1CC[C@H](N2CC[C@H](Nc3ncnc4ccc(C(F)(F)F)cc34)C2=O)[C@H](NC(=O)C2CCN(c3cnc(NCCOCCOCCNC(=O)[C@H]4CC(=O)N(C)[C@@H]4c4cccnc4)cn3)CC2)C1 [Example 162, N-((1R,2S,5R)-5-(Isopropyl(methyl)amino)-2-((S)-2-oxo-3-((6-(trifluoromethyl)quinazolin-4-yl)amino)pyrrolidin-1-yl)cyclohexyl)-1-(5-((2-(2-(2-((2S,3S)-1-methyl-5-oxo-2-(pyridin-3-yl)pyrrolidine-3-carboxamido)ethoxy)ethoxy)ethyl)amino)pyrazin-2-yl)piperidine-4-carboxamide] | 66% | – | – | 1.58 nM
8 | CC(C)N(C)[C@@H]1CC[C@H](N2CC[C@H](Nc3ncnc4ccc(C(F)(F)F)cc34)C2=O)[C@H](NC(=O)[C@H]2CC[C@@H](NC(=O)C3CCC4(CC3)CCN(CCNC(=O)[C@H]3CC(=O)N(C)[C@@H]3c3cccnc3)CC4)CC2)C1 [Example 170, N-((1S,4s)-4-(((1R,2S,5R)-5-(Isopropyl(methyl)amino)-2-((S)-2-oxo-3-((6-(trifluoromethyl)quinazolin-4-yl)amino)pyrrolidin-1-yl)cyclohexyl)carbamoyl)cyclohexyl)-3-(2-((2S,3S)-1-methyl-5-oxo-2-(pyridin-3-yl)pyrrolidine-3-carboxamido)ethyl)-3-azaspiro[5.5]undecane-9-carboxamide] | 94.75% | – | – | 0.398 nM
9 | CC(C)N(C)[C@@H]1CC[C@H](N2CC[C@H](Nc3ncnc4ccc(C(F)(F)F)cc34)C2=O)[C@H](NC(=O)C2CCN(C3CCN(C(=O)CCOCCOCCNC(=O)[C@H]4CC(=O)N(C)[C@@H]4c4cccnc4)CC3)CC2)C1 [Example 172, N-((1R,2S,5R)-5-(Isopropyl(methyl)amino)-2-((S)-2-oxo-3-((6-(trifluoromethyl)quinazolin-4-yl)amino)pyrrolidin-1-yl)cyclohexyl)-1′-(3-(2-(2-((2S,3S)-1-methyl-5-oxo-2-(pyridin-3-yl)pyrrolidine-3-carboxamido)ethoxy)ethoxy)propanoyl)-[1,4′-bipiperidine]-4-carboxamide] | 80% | – | – | 2 nM
